# Source: patent US9850308B2, “Neutralization of CD95 activity blocks invasion of glioblastoma cells in vivo” (Deutsches Krebsforschungszentrum Stiftung des oeffentlichen …, priority 2006, dated 2017)
# Entries after “also recorded” stand apart in the source; their conditions may differ. Residues, ends and D or L forms follow the SMILES beside them. *: point of attachment. Cbz = O=C(OCc1ccccc1)*; CH2F = FC*
# How the values were obtained:
# [1] = test system: GSK3β; experiment: Phosphorylation (inhibition) of GSK3β, Western Blot; type: cell-based, human; conditions: T98G cells, pre-treatment before CD95 stimulation
# Procedure: The MAPK inhibitor, PD98059 (25 μM), the PI3K inhibitor […] (25 μM) and the pancaspase inhibitor zVAD-fmk (40 μM) were purchased from Calbiochem. The ILK inhibitor (20 μM) was kindly provided from S. Dedhar. Cells were preincubated with inhibitors 30 minutes (LY 290059 and zVAD-fmk) prior to treatment with either CD95L-T4 or αApo-1. Generation of Leucinezipper-CD95L (LZCD95L) was performed as previously described^41. The blocking agents (zVAD-fmk, PD98059, LY 290059 and KP-SD1) were given 30 minutes before treatment with LZ-CD95L or αApo-1. Cells were lysed for further biochemical analysis. Protein extraction and immunoblotting was performed as previously described^41.
# [2] = test system: Jurkat A3 permanent human T-cell line; experiment: Jurkat apoptosis assay (Caspase 3/7 activity); type: cell-based; conditions: Jurkat cells, 250 ng/ml CD95L-T4, 30 min preincubation
# [3] = test system: T98G cells; experiment: Migration assay (collagen-coated transwell / two dimensional migration assay); type: cell-based, human; conditions: T98G cells stimulated with α-Apo-1 (2 μg/ml) or LZ-CD95L (5 ng/ml)
# Procedure: Migration of the glioma cells in vitro was measured by the migration through Collagen 1-coated (Chemicon) transwell inserts (Falcon). 5×10^4 cells were plated in 200 μl medium onto collagen-coated (50 μg/ml) transwell inserts with 8 μm pore size. Cells were either γ-irradiated before plating or treated after plating with α-Apo1 (2 μg/ml or 0.1 μg/ml+ProteinA for cross linking), LZ-CD95L (5 ng/ml), Nok1 (50 ng)/LZ-CD95L (5 ng/ml), Nok1 (50 ng) LZ-Supernatant (SN, 5 ng/ml), CD95L (10 ng/ml) and CD95L-T34. Preferably 24 h after plating the cells were starved with basal DMEM for additional 24 h before they were treated. The number of completely migrated cells was counted at 12 h, 24 h and 36 h after treatment. In every experiment triplicates were counted for each treatment.
# 2.5×10^5 cells were plated onto 6 cm culture dishes 12 h prior to irradiation. […]
# Knockdown experiments were performed by transient transfection with Lipofectamine 2000™ (Invitrogen Life Technologies) following the instruction manual. […] After transient transfection with the different siRNAs cells were cultured for 72 h before treated with CD95LT4 (10 ng/ml and 20 ng/ml), migration was analyzed 24 h after treatment with a two dimensional migration assay. The knockdown was controlled by quantitative real-time PCR and FACS. […] Migration was measured 24 h after treatment in a two dimensional migration assay.
compound,measurement,setting,value
COC(=O)C[C@H](NC(=O)[C@H](C)NC(=O)[C@@H](NC(=O)OCc1ccccc1)C(C)C)C(=O)CF [zVAD-fmk] (Cbz-Val-Ala-Asp(OMe)-CH2F),blockade of CD95-induced GSK3β phosphorylation/inhibition,[1],did not prevent GSK3β phosphorylation; also recorded: did not interfere with α-Apo-1 (2 μg/ml)-induced inhibition of GSK3β
same,blockade of CD95-induced GSK3β phosphorylation/inhibition,[1]; listed as zVAD.fmk,did not block ser9 phosphorylation of GSK3β
"APG101: fusion protein of the extracellular domain of the human CD95-receptor with human Fc, SEQ ID NO:1",antagonism of CD95L-T4-induced apoptosis,[2],antagonizes the apoptosis inducing effect of CD95L; also recorded: antagonized by APG101 in a dose dependent manner
same,antagonism of CD95L-T4-induced apoptosis,[2]; listed as AP-G101,antagonizes the apoptosis inducing activity of CD95L-T4
COc1cccc(-c2cc(=O)c3ccccc3o2)c1N [PD98059],blockade of CD95-induced migration,[3],did not interfere with CD95-induced migration
same,blockade of CD95-induced migration,[3]; listed as PD 98059,did not interfere with the CD95-induced migration
